Assays:
[1] = system: summer wheat (TRZAS; cv. Triso); assay: Relative action (efficacy code): reduction of damage by mesosulfuron-methyl on summer wheat; assay type: in vivo; design: key: 0: no reduction in damage (appearance corresponding to the herbicide control); 1: slight reduction in damage; 2: distinct reduction in damage; 3: significant reduction in damage; 4: complete reduction in damage (appearance corresponding to the untreated control); conditions: then mesosulfuron-methyl 40-60 g/ha, visual, 9-13 days after application
Description: 2.3 Relative Action of Selected Compounds of the Invention Using the Example of Reduction of Damage by Mesosulfuron-Methyl on Summer Wheat (TRZAS) The seeds of the crop plants to be treated are laid out in sandy loam in plastic pots (diameter ˜4 cm), covered with soil and grown in a greenhouse under good conditions for germination and growth. The trial plants were treated at the early leaf stage (BBCH10—BBCH12). In the course of this, the inventive compounds of the general formula (I) formulated in the form of wettable powders (WP) were sprayed onto the above-ground parts of the plants as an aqueous suspension with a water application rate corresponding to 800 l/ha with addition of wetting agent (e.g. 0.2% Genapol-LRO or 0.2% Mero) in the specified dose. This was followed by the application of the herbicide. For this purpose, mesosulfuron-methyl, formulated in the form of water-dispersible granules (WG), was sprayed onto the above-ground parts of the plants in the form of an aqueous dispersion with a water application rate corresponding to 800 l/ha with addition of wetting agent (e.g. 0.2% Genapol-LRO or 1 l/ha Biopower) in a dose of 40-60 g/ha. The dose of the herbicide was chosen here such that it causes visually apparent damage (min. 30%, max. 75%) compared to untreated crop plants at the evaluation time on a control group of crop plants without safener treatment that were included in the same trial. After application, the plants were cultivated under good growth conditions in a greenhouse. 9-13 days after application, the efficacy of the test compounds was assessed visually. For this purpose, the appearance of the plants treated with the test compound and herbicide was compared to the corresponding herbicide controls (without safener; with clearly visible damage) and the untreated controls (without damage). The damage-reducing effect of the test compounds was expressed here in graded efficacy codes according to the following scheme: • 0: no reduction in damage (appearance corresponding to the herbicide control) • 1: slight reduction in damage • 2: distinct reduction in damage • 3: significant reduction in damage • 4: complete reduction in damage (appearance corresponding to the untreated control) The trials show clear efficacy of the substances of the invention with regard to the reduction in damage to the summer wheat crop plant (TRZAS; cv. Triso) caused by the herbicide mesosulfuron-methyl: […]

[2] = system: summer barley (HORVS; cv. Montoya); assay: Relative action (efficacy code): reduction of damage by mesosulfuron-methyl on summer barley; assay type: in vivo; design: key: 0: no reduction in damage (appearance corresponding to the herbicide control); 1: slight reduction in damage; 2: distinct reduction in damage; 3: significant reduction in damage; 4: complete reduction in damage (appearance corresponding to the untreated control); conditions: then mesosulfuron-methyl 40-60 g/ha, visual, 9-13 days after application
Description: 2.4 Relative Action of Selected Compounds of the Invention Using the Example of Reduction of Damage by Mesosulfuron-Methyl on Summer Barley (HORVS) The seeds of the crop plants to be treated are laid out in sandy loam in plastic pots (diameter ˜4 cm), covered with soil and grown in a greenhouse under good conditions for germination and growth. The trial plants were treated at the early leaf stage (BBCH10—BBCH12). In the course of this, the inventive compounds of the general formula (I) formulated in the form of wettable powders (WP) were sprayed onto the above-ground parts of the plants as an aqueous suspension with a water application rate corresponding to 800 l/ha with addition of wetting agent (e.g. 0.2% Genapol-LRO or 0.2% Mero) in the specified dose. This was followed by the application of the herbicide. For this purpose, mesosulfuron-methyl, formulated in the form of water-dispersible granules (WG), was sprayed onto the above-ground parts of the plants in the form of an aqueous dispersion with a water application rate corresponding to 800 l/ha with addition of wetting agent (e.g. 0.2% Genapol-LRC) or 1 l/ha Biopower) in a dose of 40-60 g/ha. The dose of the herbicide was chosen here such that it causes visually apparent damage (min. 30%, max. 75%) compared to untreated crop plants at the evaluation time on a control group of crop plants without safener treatment that were included in the same trial. After application, the plants were cultivated under good growth conditions in a greenhouse. 9-13 days after application, the efficacy of the test compounds was assessed visually. For this purpose, the appearance of the plants treated with the test compound and herbicide was compared to the corresponding herbicide controls (without safener; with clearly visible damage) and the untreated controls (without damage). The damage-reducing effect of the test compounds was expressed here separately for 2 repeats in graded efficacy codes according to the following scheme: • 0: no reduction in damage (appearance corresponding to the herbicide control) • 1: slight reduction in damage • 2: distinct reduction in damage • 3: significant reduction in damage • 4: complete reduction in damage (appearance corresponding to the untreated control) The trials show clear efficacy of the substances of the invention with regard to the reduction in damage to the summer barley crop plant (HORVS; cv. Montoya) caused by the herbicide mesosulfuron-methyl: […]

[3] = safener dose 100 (unit not given)

Row | SMILES | Efficacy of the safener (efficacy code) [1, 3] | Efficacy of the safener (efficacy code) ([2]; safener 100 g/ha) | Efficacy of the safener (efficacy code) ([1]; safener dose 500 (unit not given)) | Efficacy of the safener (efficacy code) ([2]; safener 500 g/ha)
1 | COC(=O)CCOC(=O)COc1nc(-c2ccc(Cl)cc2Cl)n(-c2ccc(Cl)cc2F)n1 [I.61-49, Methyl 3-(2-{[1-(4-chloro-2-fluorophenyl)-5-(2,4-dichlorophenyl)-1H-1,2,4-triazol-3-yl]oxy}acetoxy)propanoate] | 2 | 2 | – | –
2 | O=C(COc1nc(-c2ccc(F)cc2F)n(-c2ccc(Cl)cc2F)n1)OCC1CCOC1 (centres unmarked) [I.63-49] | 2 | 2 | – | –
3 | CCCCOC(=O)COc1nc(-c2ccc(F)cc2F)n(-c2ccc(Cl)cc2F)n1 [I.66-49] | 2 | 2 | – | –
4 | COCCOC(=O)COc1nc(-c2ccc(F)cc2F)n(-c2ccc(F)cc2Cl)n1 [I.67-48] | 2 | 2 | – | –
5 | COCCOC(=O)COc1nc(-c2ccc(F)cc2F)n(-c2ccc(Cl)cc2F)n1 [I.67-49] | 2 | 2 | 2 | 2
6 | CCOC(=O)CCOC(=O)COc1nc(-c2ccc(F)cc2F)n(-c2ccc(Cl)cc2F)n1 [I.69-49] | 2 | 2 | – | –

Reference: patent publication US12583826B2, “[(1,5-diphenyl-1H-1,2,4-triazol-3-yl)oxy]acetic acid derivatives and salts thereof, crop protection compositions comprising them, methods for producing them and use thereof as safeners” (Bayer Aktiengesellschaft, priority 2019, dated 2026)
